Test results reported in PubChem BioAssay (NCI).
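Assay format: 96-well plates, 48-hour exposure. The concentration for 50% growth inhibition is given as GI50. TGI: concentration producing complete growth inhibition.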

How the values were obtained:
Experiment in all cases: growth of human tumour cells (NCI), 48 h
786-0 renal = system: 786-0 renal
A498 renal = system: A498 renal
A549 NSCLC = system: A549 NSCLC
ACHN renal = system: ACHN renal
BT-549 breast = system: BT-549 breast
CAKI-1 renal = system: CAKI-1 renal
CCRF-CEM leukemia = system: CCRF-CEM leukemia
COLO 205 colon = system: COLO 205 colon
DU-145 prostate = system: DU-145 prostate
EKVX NSCLC = system: EKVX NSCLC
HCC-2998 colon = system: HCC-2998 colon
HCT-116 colon = system: HCT-116 colon
HCT-15 colon = system: HCT-15 colon
HL-60(TB) leukemia = system: HL-60(TB) leukemia
HOP-62 NSCLC = system: HOP-62 NSCLC
HOP-92 NSCLC = system: HOP-92 NSCLC
HS 578T breast = system: HS 578T breast
HT29 colon = system: HT29 colon
IGROV1 ovarian = system: IGROV1 ovarian
K-562 leukemia = system: K-562 leukemia
KM12 colon = system: KM12 colon
M14 melanoma = system: M14 melanoma
MALME-3M melanoma = system: MALME-3M melanoma
MCF7 breast = system: MCF7 breast
MDA-MB-231 breast = system: MDA-MB-231 breast
MDA-MB-435 = system: MDA-MB-435
MDA-MB-468 breast = system: MDA-MB-468 breast
MOLT-4 leukemia = system: MOLT-4 leukemia
NCI-H226 lung = system: NCI-H226 lung
NCI-H23 lung = system: NCI-H23 lung
NCI-H460 lung = system: NCI-H460 lung
NCI-H522 lung = system: NCI-H522 lung
NCI/ADR-RES ovarian = system: NCI/ADR-RES ovarian
OVCAR-3 ovarian = system: OVCAR-3 ovarian
OVCAR-4 ovarian = system: OVCAR-4 ovarian
OVCAR-5 ovarian = system: OVCAR-5 ovarian
OVCAR-8 ovarian = system: OVCAR-8 ovarian
PC-3 prostate = system: PC-3 prostate
RPMI-8226 leukemia = system: RPMI-8226 leukemia
RXF 393 renal = system: RXF 393 renal
SF-268 CNS = system: SF-268 CNS
SF-295 CNS = system: SF-295 CNS
SF-539 CNS = system: SF-539 CNS
SK-MEL-2 melanoma = system: SK-MEL-2 melanoma
SK-MEL-28 melanoma = system: SK-MEL-28 melanoma
SK-MEL-5 melanoma = system: SK-MEL-5 melanoma
SK-OV-3 ovarian = system: SK-OV-3 ovarian
SN12C renal = system: SN12C renal
SNB-19 CNS = system: SNB-19 CNS
SNB-75 CNS = system: SNB-75 CNS
SR leukemia = system: SR leukemia
T-47D breast = system: T-47D breast
TK-10 renal = system: TK-10 renal
U251 CNS = system: U251 CNS
UACC-257 melanoma = system: UACC-257 melanoma
UACC-62 melanoma = system: UACC-62 melanoma
UO-31 renal = system: UO-31 renal

CCCCCc1ccc(S(=O)(=O)Nc2cc(-c3csc(N(C)C(C)=O)n3)ccc2N2CCN(C)CC2)cc1
GI50 (786-0 renal): 2.29 µM
TGI (786-0 renal): 30.8 µM
GI50 (A498 renal): 9.21 µM
TGI (A498 renal): > 35.5 µM
GI50 (A549 NSCLC): 3.34 µM
TGI (A549 NSCLC): > 35.5 µM
GI50 (ACHN renal): 4.66 µM
TGI (ACHN renal): > 35.5 µM
GI50 (BT-549 breast): 9.72 µM
TGI (BT-549 breast): > 35.5 µM
GI50 (CAKI-1 renal): 1.86 µM
TGI (CAKI-1 renal): 13.5 µM
GI50 (CCRF-CEM leukemia): 1.02 µM
TGI (CCRF-CEM leukemia): 3.71 µM
GI50 (COLO 205 colon): 0.626 µM
TGI (COLO 205 colon): 1.27 µM
GI50 (DU-145 prostate): 3.93 µM
TGI (DU-145 prostate): > 35.5 µM
GI50 (EKVX NSCLC): 15.2 µM
TGI (EKVX NSCLC): > 35.5 µM
GI50 (HCC-2998 colon): 1.25 µM
TGI (HCC-2998 colon): 8.55 µM
GI50 (HCT-116 colon): 1.07 µM
TGI (HCT-116 colon): 3.67 µM
GI50 (HCT-15 colon): 1.04 µM
TGI (HCT-15 colon): > 35.5 µM
GI50 (HL-60(TB) leukemia): 0.807 µM
TGI (HL-60(TB) leukemia): 2.4 µM
GI50 (HOP-62 NSCLC): 7.85 µM
TGI (HOP-62 NSCLC): > 35.5 µM
GI50 (HOP-92 NSCLC): 1.71 µM
TGI (HOP-92 NSCLC): 15.4 µM
GI50 (HS 578T breast): 5.25 µM
TGI (HS 578T breast): 35.1 µM
GI50 (HT29 colon): 1.13 µM
TGI (HT29 colon): 3.66 µM
GI50 (IGROV1 ovarian): 9.77 µM
TGI (IGROV1 ovarian): > 35.5 µM
GI50 (K-562 leukemia): 1.01 µM
TGI (K-562 leukemia): > 35.5 µM
GI50 (KM12 colon): 3.61 µM
TGI (KM12 colon): > 35.5 µM
GI50 (M14 melanoma): 3.93 µM
TGI (M14 melanoma): > 35.5 µM
GI50 (MALME-3M melanoma): 5.26 µM
TGI (MALME-3M melanoma): 19.7 µM
GI50 (MCF7 breast): 0.983 µM
TGI (MCF7 breast): 4.09 µM
GI50 (MDA-MB-231 breast): 1.81 µM
TGI (MDA-MB-231 breast): 8.34 µM
GI50 (MDA-MB-435): 2.02 µM
TGI (MDA-MB-435): > 35.5 µM
GI50 (MDA-MB-468 breast): 1.62 µM
TGI (MDA-MB-468 breast): 7.5 µM
GI50 (MOLT-4 leukemia): 1.4 µM
TGI (MOLT-4 leukemia): > 35.5 µM
GI50 (NCI-H226 lung): 8.43 µM
TGI (NCI-H226 lung): 33.2 µM
GI50 (NCI-H23 lung): 7.49 µM
TGI (NCI-H23 lung): 31.7 µM
TGI (NCI-H460 lung): 11.1 µM
GI50 (NCI-H522 lung): 5.51 µM
TGI (NCI-H522 lung): 14.7 µM
GI50 (NCI/ADR-RES ovarian): 5.75 µM
TGI (NCI/ADR-RES ovarian): > 35.5 µM
GI50 (OVCAR-3 ovarian): 1.12 µM
TGI (OVCAR-3 ovarian): 12.8 µM
GI50 (OVCAR-4 ovarian): 2.22 µM
TGI (OVCAR-4 ovarian): 29.8 µM
GI50 (OVCAR-5 ovarian): 16.5 µM
TGI (OVCAR-5 ovarian): > 35.5 µM
GI50 (OVCAR-8 ovarian): 10.2 µM
TGI (OVCAR-8 ovarian): > 35.5 µM
GI50 (PC-3 prostate): 2.2 µM
TGI (PC-3 prostate): > 35.5 µM
GI50 (RPMI-8226 leukemia): 1.32 µM
TGI (RPMI-8226 leukemia): > 35.5 µM
GI50 (RXF 393 renal): 2.11 µM
TGI (RXF 393 renal): 17.9 µM
GI50 (SF-268 CNS): 7.01 µM
TGI (SF-268 CNS): > 35.5 µM
GI50 (SF-295 CNS): 0.754 µM
TGI (SF-295 CNS): 2.12 µM
GI50 (SF-539 CNS): 1.21 µM
TGI (SF-539 CNS): 4.59 µM
GI50 (SK-MEL-2 melanoma): 8.64 µM
TGI (SK-MEL-2 melanoma): 30.2 µM
GI50 (SK-MEL-28 melanoma): 6.76 µM
TGI (SK-MEL-28 melanoma): 19.7 µM
GI50 (SK-MEL-5 melanoma): 4.47 µM
TGI (SK-MEL-5 melanoma): 16.9 µM
GI50 (SK-OV-3 ovarian): 7.29 µM
TGI (SK-OV-3 ovarian): 17.5 µM
GI50 (SN12C renal): 3.73 µM
TGI (SN12C renal): 28.1 µM
GI50 (SNB-19 CNS): 10.9 µM
TGI (SNB-19 CNS): > 35.5 µM
GI50 (SNB-75 CNS): 3.6 µM
TGI (SNB-75 CNS): 15 µM
GI50 (SR leukemia): 1.02 µM
TGI (SR leukemia): 3.6 µM
GI50 (T-47D breast): 2.95 µM
TGI (T-47D breast): > 35.5 µM
GI50 (TK-10 renal): 7.43 µM
TGI (TK-10 renal): 19.9 µM
GI50 (U251 CNS): 7.43 µM
TGI (U251 CNS): > 35.5 µM
GI50 (UACC-257 melanoma): 6.59 µM
TGI (UACC-257 melanoma): 26.9 µM
GI50 (UACC-62 melanoma): 6.2 µM
TGI (UACC-62 melanoma): 12.6 µM
GI50 (UO-31 renal): 5.42 µM
TGI (UO-31 renal): > 35.5 µM
